According to EPA's CvTdb concentration-time database:

Experiments:
Rat [1] = assay: concentration in brain after dosing; conditions: 0.5 h; dosed: Potassium Perfluorobutane Sulfonate; 20 mg/kg; oral; Female; Harlan Sprague Dawley
Rat [2] = assay: concentration in liver after dosing; conditions: 1 h; dosed: Potassium Perfluorobutane Sulfonate; 20 mg/kg; oral; Female; Harlan Sprague Dawley
Rat [3] = assay: concentration in plasma after dosing; conditions: 0.75 h; dosed: Potassium Perfluorobutane Sulfonate; 4 mg/kg; iv; Female; Harlan Sprague-Dawley
Rat [4] = assay: concentration in kidney after dosing; conditions: 0.5 h; dosed: Potassium Perfluorobutane Sulfonate; 20 mg/kg; oral; Female; Harlan Sprague Dawley
Rat [5] = assay: concentration in plasma after dosing; conditions: dosed: Potassium Perfluorobutane Sulfonate, 4 mg/kg, iv, Male, F344
Rat [6] = assay: concentration in kidney after dosing; conditions: 12 h; dosed: Potassium Perfluorobutane Sulfonate; 20 mg/kg; oral; Male; Harlan Sprague Dawley
Rat [7] = assay: concentration in plasma after dosing; conditions: dosed: Potassium Perfluorobutane Sulfonate, 20 mg/kg, oral, Male, Harlan Sprague Dawley
Rat [8] = assay: concentration in plasma after dosing; conditions: 5 min; dosed: Nitrite; 40 mg/kg; oral; Female; Harlan Sprague-Dawley
Rat [9] = assay: concentration in plasma after dosing; conditions: 2 min; dosed: Nitrite; 40 mg/kg; oral; Female; F344
Rat [10] = assay: concentration in plasma after dosing; conditions: 10 min; dosed: Nitrite; 80 mg/kg; oral; Female; F344
Rat [11] = assay: concentration in plasma after dosing; conditions: 0.5 h; dosed: Nitrite; 80 mg/kg; oral; Female; F344
Rat [12] = assay: concentration in plasma after dosing; conditions: dosed: Nitrite, 20 mg/kg, iv, Male, F344
Rat [13] = assay: concentration in plasma after dosing; conditions: 2 min; dosed: Nitrite; 20 mg/kg; iv; Male; F344
Rat [14] = assay: concentration in plasma after dosing; conditions: dosed: Nitrite, 80 mg/kg, oral, Female, F344
Rat [15] = assay: concentration in plasma after dosing; conditions: dosed: 2-Hydroxy-4-methoxybenzophenone, 100 mg/kg, oral, Male, F344
Rat [16] = assay: concentration in plasma after dosing; conditions: dosed: 2-Hydroxy-4-methoxybenzophenone, 8 mg/kg, iv, Female, F344
Mouse [17] = assay: concentration in plasma after dosing; conditions: 3 h; dosed: 2-Hydroxy-4-methoxybenzophenone; 50 mg/kg; iv; Male; B6C3F1
Mouse [18] = assay: concentration in plasma after dosing; conditions: 2 h; dosed: 2-Hydroxy-4-methoxybenzophenone; 500 mg/kg; oral; Male; B6C3F1
Mouse [19] = assay: concentration in plasma after dosing; conditions: 0.25 h; dosed: 2-Hydroxy-4-methoxybenzophenone; 50 mg/kg; iv; Male; B6C3F1
Mouse [20] = assay: concentration in plasma after dosing; conditions: 10 min; dosed: 2-Hydroxy-4-methoxybenzophenone; 250 mg/kg; oral; Male; B6C3F1
Rat [21] = assay: concentration in plasma after dosing; conditions: dosed: 678-39-7, 12 mg/kg, iv, Male, F344
Rat [22] = assay: concentration in kidney after dosing; conditions: 12 h; dosed: Fluorotelomer alcohol 8+2; 80 mg/kg; oral; Female; Harlan Sprague Dawley
Rat [23] = assay: concentration in brain after dosing; conditions: 24 h; dosed: Perfluorooctanoic acid; 12 mg/kg; oral; Male; Harlan Sprague Dawley
Rat [24] = assay: concentration in brain after dosing; conditions: 3 h; dosed: Perfluorooctanoic acid; 12 mg/kg; oral; Male; Harlan Sprague Dawley
Rat [25] = assay: concentration in plasma after dosing; conditions: dosed: 678-39-7, 40 mg/kg, iv, Male, F344
Rat [26] = assay: concentration in liver after dosing; conditions: 6 h; dosed: Perfluorooctanoic acid; 80 mg/kg; oral; Female; Harlan Sprague Dawley
Rat [27] = assay: concentration in kidney after dosing; conditions: 12 h; dosed: Perfluorooctanoic acid; 80 mg/kg; oral; Female; Harlan Sprague Dawley
rat [28] = assay: concentration in adipose after dosing (ugEq/g tissue); conditions: dosed: benzo[a]pyrene, iv, male, Wistar

O=S(=O)([O-])C(F)(F)C(F)(F)C(F)(F)C(F)(F)F.[K+] [Potassium Perfluorobutane Sulfonate]
Conditions | concentration in brain [ng/g] | concentration in kidney [ng/g] | concentration in liver [ng/g] | concentration in plasma [ng/mL]
Rat [1] | 518 | – | – | –
Rat [2] | – | – | 30300 | –
Rat [3] | – | – | – | 2530
Rat [4] | – | 23200 | – | –
Rat [6] | – | 3610 | – | –

concentration in plasma [ng/mL]
Conditions | 0.25 h | 6 h | 24 h
Rat [5] | 15900 | 47.5 | –
Rat [7] | 30200 | – | 1070

O=N[O-] [Nitrite]
Conditions | concentration in plasma [ng/mL]
Rat [8] | 4100
Rat [9] | 7300
Rat [10] | 31800
Rat [11] | 8900
Rat [13] | 15100

concentration in plasma [ng/mL]
Conditions | 1 h | 1.5 h | 2 h | 20 min
Rat [12] | – | 2000 | – | 2600
Rat [14] | 32700 | – | 20600 | –

COc1ccc(C(=O)c2ccccc2)c(O)c1 [2-Hydroxy-4-methoxybenzophenone]
concentration in plasma [ng/mL]
Conditions | Rat [15] | Rat [16]
0.25 h | 88.9 | 1800
4 h | 26.1 | 38.7

Conditions | concentration in plasma [ng/mL]
Mouse [17] | 218
Mouse [18] | 90.1
Mouse [19] | 7710
Mouse [20] | 148

O=C(O)C(F)(F)C(F)(F)C(F)(F)C(F)(F)C(F)(F)C(F)(F)C(F)(F)F [Perfluorooctanoic acid]
concentration in plasma [ng/mL]
Conditions | 0.25 h | 0.5 h | 6 h | 9 h | 48 h
Rat [21] | – | 210 | – | 521 | –
Rat [25] | 276000 | – | 77700 | – | 31.9

Conditions | concentration in brain [ng/g] | concentration in kidney [ng/g] | concentration in liver [ng/g]
Rat [22] | – | 626 | –
Rat [23] | 1210 | – | –
Rat [24] | 1330 | – | –
Rat [26] | – | – | 130000
Rat [27] | – | 93700 | –

c1ccc2c(c1)cc1ccc3cccc4ccc2c1c34 [benzo[a]pyrene]
concentration in adipose, rat [28]
Conditions | 2 mg/kg | 6 mg/kg | 15 mg/kg
0.5 h | 2.77 | 2.29 | 8.6
0.75 h | 2.4 | 4.54 | 13.4
1 h | 3.86 | 3.99 | 9.76
1.5 h | 2.58 | 5.25 | 14.8
2 h | 3.96 | 3.37 | 17.1
3 h | 3.29 | 2.88 | 19.8
4 h | 2.96 | 2.38 | 15.4
5 h | 3.03 | 3.88 | 27.8
5 min | 1.06 | 0.37 | 1.47
6 h | 2.28 | 4.26 | 15.1
8 h | 3.13 | 4.09 | 17.4
10 min | 1.22 | 0.81 | 2.73
20 min | 1.82 | 2.04 | 5.65
24 h | 1.38 | – | 11.1
32 h | 1.46 | 1.02 | 5.85
